Reference: patent publication US10202391B2, “Chemical compounds” (AstraZeneca AB, priority 2015, dated 2019)

System: A549 cell line
Assay: Combination cell growth inhibition (Sytox Green, Loewe synergy), A549
Type: cell-based, human
Conditions: Example 18 with selumetinib, 6x6 dosing matrix 0-10 μmol/L, 3 days, Loewe model, average of three or more experiments
Excerpt: A549 is a human non small cell lung cancer line carrying an oncogenic mutation in the KRAS gene (G12S). H2122 is a human non small cell lung cancer line carrying an oncogenic mutation in the KRAS gene (G12C). H2009 is a human non small cell lung cancer line carrying an oncogenic mutation in the KRAS gene (G12A). Calu6 is a human non small cell lung cancer line carrying mutation in the KRAS ([…]) gene. All cell lines were obtained from the American Type Culture Collection.
All cell line were maintained at 37° C. and 5% CO2 in a humidified atmosphere and grown in RPMI-1640 growth media supplemented with 10% FBS and 2 mmol/L glutamine. […]
Cells were seeded in 384-well black, clear bottomed plates (Greiner Bio-One, Stonehouse, UK), cultured for 18-24 hours and treated with increasing concentrations of Example 18 and selumetinib (0-10 μmol/L) in a 6×6 dosing matrix. […] After 3 days of treatment, live cell number was determined using a Sytox Green endpoint as described previously (“Davies B R, Greenwood H, Dudley P, et al: Preclinical pharmacology of AZD5363, an inhibitor of AKT: Pharmacodynamics, antitumor activity, and correlation of monotherapy activity with genetic background. Mol Cancer Ther 11(4):873-87, 2012”). […] Cells were then permeabilised by the overnight addition of saponin (0.03% final concentration, diluted in TBS-EDTA buffer) and a total cell count measured. […]

`COC[C@H]1Cn2cc(-c3nc(Nc4ccnn4C)ncc3C)nc2C(=O)N1Cc1ccc(F)c(F)c1` [Example 18, (R)-7-(3,4-Difluorobenzyl)-6-(methoxymethyl)-2-(5-methyl-2-((1-methyl-1H-pyrazol-5-yl)amino)pyrimidin-4-yl)-6,7-dihydroimidazo[1,2-a]pyrazin-8(5H)-one] was tested, and the Synergy score was 25.
